Reference: patent US8598168B2 (MethylGene Inc., priority 2006, dated 2013)

Legend:
[1] = system: p21 promoter-driven luciferase in HCT116 cells; experiment: p21WAF1/Cip1 Assay (p21 promoter-driven luciferase reporter); assay type: cell-based, human; details: 16 hours treatment, value designated as reference
Experimental: HCT116 cells were stably transfected with reporter plasmids encoding the p21 promoter-driven luciferase. Cells were treated with indicated concentration of HDAC inhibitors for 16 hours before cells were harvested and luciferase activity analyzed. The effective concentration (EC) of MS-275 was designated as 1 μM. The ability of HDAC inhibitor was compared with that of MS-275 (T. Suzuki, et. al J. Med. Chem., 1999, 3001-3003).

[2] = Log D (comparison with previously disclosed compounds); assay type: physicochemical; details: pH 7.4
HDAC-1 = HDAC-1 (Homo sapiens, UniProt Q13547); experiment: Inhibition of Histone Deacetylase Enzymatic (HDAC-1) Activity; assay type: biochemical; details: Table 21
Chain of HDAC-1 (Q13547 whole entry): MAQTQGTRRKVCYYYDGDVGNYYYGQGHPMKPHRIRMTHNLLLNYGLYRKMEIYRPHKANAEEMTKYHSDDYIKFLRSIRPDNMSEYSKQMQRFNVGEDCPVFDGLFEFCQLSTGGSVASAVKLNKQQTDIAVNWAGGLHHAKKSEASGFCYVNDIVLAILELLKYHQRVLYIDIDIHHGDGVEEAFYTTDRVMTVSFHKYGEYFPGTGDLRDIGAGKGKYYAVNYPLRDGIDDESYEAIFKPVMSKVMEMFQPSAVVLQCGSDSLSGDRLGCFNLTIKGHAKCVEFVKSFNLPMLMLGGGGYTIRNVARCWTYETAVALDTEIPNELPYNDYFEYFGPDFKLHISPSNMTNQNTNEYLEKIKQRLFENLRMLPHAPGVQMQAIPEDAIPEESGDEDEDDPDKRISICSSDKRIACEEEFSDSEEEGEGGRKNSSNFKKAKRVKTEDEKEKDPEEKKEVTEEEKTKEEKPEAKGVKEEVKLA
Experimental: The following protocol was used to assay the compounds of the invention.
The mixture was pre-incubated for 5 minutes at room temperature. The reaction was started by bringing the temperature to 37° C. and adding 15 μl substrate. Total reaction volume was 50 μl.

[3] = system: human colon cancer HCT116 cells; experiment: MTT Assay; assay type: cell-based; details: HCT-116, 72 hours, Table 21
Experimental: Compounds at various concentrations were added to human colon cancer HCT116 cells plated in 96-well plates. Cells were incubated for 72 hours at 37° C. in 5% CO2 incubator. MTT (3-[4,5-dimethylthiazol-2-yl]-2,5 diphenyl tetrazolium bromide, Sigma) was added at a final concentration of 0.5 mg/ml and incubated with the cells for 4 hours before an equal volume of solubilization buffer (50% N,N-dimethylformamide, 20% SDS, pH 4.7) was added onto cultured cells. After overnight incubation, solubilized dye was quantified by colorimetric reading at […] using a reference at 630 nM. OD values were converted to cell numbers according to a standard growth curve of the relevant cell line. The concentration which reduces cell numbers to 50% of those of DMSO-treated cells is determined as MTT IC50.

| logD [2] | IC50 (HDAC-1) [nM] | IC50 [3] [nM] | SMILES | effective concentration (EC) to induce p21 expression [1] [µM] |
| --- | --- | --- | --- | --- |
| 2.85 | < 1000 | 1000 to 5000 | CN(C)CCSc1ccc(C(=O)Nc2cc(-c3cccs3)ccc2N)cc1 [compound 106, N-(2-amino-5-(thiophen-2-yl)phenyl)-4-(2-(dimethyl-amino)ethylthio)-benzamide] | – |
| 1.85 | < 1000 | < 1000 | CN(C)CCOC(=O)NCc1ccc(C(=O)Nc2cc(-c3cccs3)ccc2N)cc1 [compound 221, 2-(Dimethylamino)ethyl 4-(2-amino-5-(thiophen-2-yl)phenylcarbamoyl)benzylcarbamate] | – |
| 3.27 | < 1000 | < 1000 | Nc1ccc(-c2cccs2)cc1NC(=O)c1ccc(CN2CC[C@H](Nc3cccnc3)C2)cc1 [compound 249, (S)—N-(2-Amino-5-(thiophen-2-yl)phenyl)-4-((3-(pyridin-3-ylamino)pyrrolidin-1-yl)methyl)benzamide] | – |

Continued, compound first:

| SMILES | logD [2] | IC50 (HDAC-1) [nM] | IC50 [3] [nM] | effective concentration (EC) to induce p21 expression [1] [µM] |
| --- | --- | --- | --- | --- |
| Nc1ccccc1NC(=O)c1ccc(CNC(=O)OCc2cccnc2)cc1 [MS-275] | – | – | – | 1 |
| COCCN1CCN(c2ccc(C(=O)Nc3cc(-c4cccs4)ccc3N)cc2)CC1 [compound 108, N-(2-amino-5-(thiophen-2-yl)phenyl)-4-(4-(2-methoxyethyl)-piperazin-1-yl)benzamide] | 1.78 | < 1000 | < 1000 | – |
| CN(C)CCN(C)C(=O)NCc1ccc(C(=O)Nc2cc(-c3cccs3)ccc2N)cc1 [compound 222, N-(2-amino-5-(thiophen-2-yl)phenyl)-4-((3-(2-(dimethylamino)ethyl)-3-methylureido)methyl)benzamide] | 1.05 | < 1000 | < 1000 | – |
| CN(C)[C@H]1CC(=O)N(Cc2ccc(C(=O)Nc3cc(-c4cccs4)ccc3N)cc2)C1=O [compound 242, (S)—N-(2-Amino-5-(thiophen-2-yl)phenyl)-4-((3-(dimethylamino)-2,5-dioxopyrrolidin-1-yl)methyl)benzamide] | 1.81 | < 1000 | 1000 to 5000 | – |
